Laboratory results taken from patent US8399663B2, “Salt of 1,3,5-triazine-2,4,6-triamine derivative” (Astellas Pharma Inc., priority 2009, dated 2013).

What was measured:
[1] = system: methamphetamine-induced hyperlocomotion; assay: Methamphetamine-induced hyperlocomotion model (animal model of Schizophrenia); format: in vivo, male ddY mouse; settings: oral administration to male ddY mice
Description: Methamphetamine is a psychostimulant, and is known to cause symptoms that are similar to Schizophrenia by increasing the transmission in the dopaminergic neurons. The abnormal behavior produced when methamphetamine is administered to an animal is generally used as a screening method for a therapeutic drug for Schizophrenia (Oka et al., 1993, J. Pharmacol. Exp. Ther., 264:158-165, herein incorporated by reference). That is, a male ddY mouse was placed in an activity monitoring apparatus, and after 30 min, methamphetamine was administered. Immediately after administering methamphetamine, the mouse was returned to the monitoring apparatus, and the activity for 1 hour from immediately after the return was measured. For the measurement of the activity, a Supermex sensor manufactured by Muromachi Kikai Co., Ltd. was used. A solvent, or a diluted solution obtained by diluting each of the test compounds with a solvent at multiple concentrations was orally administered to mice in a group. As the solvent, a 0.5% aqueous methyl cellulose solution was used. The statistical analysis was carried out between the group administered with the solvent and the group administered with the drug, using a Dunnett's test.

[2] = pKa value of the compound; format: physicochemical

Fc1ccc(Nc2nc(NCc3ncccn3)nc(Nc3ccccc3)n2)cc1 [compound A, N-(4-fluorophenyl)-N′-phenyl-N″-(pyrimidin-2-ylmethyl)-1,3,5-triazine-2,4,6-triamine]
methamphetamine-induced hyperlocomotion inhibitory action [1]: inhibited the methamphetamine-induced hyperlocomotion | pKa [2]: 3.9

Fc1ccc(Nc2nc(NCc3ncccn3)nc(Nc3ccc(F)cc3)n2)cc1 [compound B, N,N′-bis(4-fluorophenyl)-N″-(pyrimidin-2-ylmethyl)-1,3,5-triazine-2,4,6-triamine]
methamphetamine-induced hyperlocomotion inhibitory action [1]: inhibited the methamphetamine-induced hyperlocomotion
